{"source": "paper PMC12067444", "about": "“Synthesis and Pharmacological Characterization of Novel Peripheral Cannabinoid-1 Receptor Blockers Based on a Tricyclic Scaffold” (Journal of Medicinal Chemistry, 2025)", "key": {"CYP1A2": {"molecular_target": "T1, CYP1A2 (Homo sapiens, UniProt P05177)", "T1 construct": "from tissue; host or cells: human liver microsomes", "T1 sequence (P05177 1-516)": "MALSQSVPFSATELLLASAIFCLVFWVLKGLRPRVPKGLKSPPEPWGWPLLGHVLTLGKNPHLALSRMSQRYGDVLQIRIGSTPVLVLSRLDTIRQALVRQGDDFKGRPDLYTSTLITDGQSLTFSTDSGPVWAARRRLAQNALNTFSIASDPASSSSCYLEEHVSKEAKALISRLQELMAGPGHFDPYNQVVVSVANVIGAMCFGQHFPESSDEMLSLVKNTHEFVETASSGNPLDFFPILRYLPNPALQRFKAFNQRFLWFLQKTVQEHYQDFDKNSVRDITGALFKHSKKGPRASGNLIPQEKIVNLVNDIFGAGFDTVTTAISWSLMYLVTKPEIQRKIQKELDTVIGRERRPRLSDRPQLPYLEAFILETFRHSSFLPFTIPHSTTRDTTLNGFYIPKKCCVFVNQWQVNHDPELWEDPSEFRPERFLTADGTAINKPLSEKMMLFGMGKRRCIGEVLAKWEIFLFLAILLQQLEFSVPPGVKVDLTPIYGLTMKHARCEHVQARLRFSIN", "test": "CYP inhibition in human liver microsomes", "type": "in vitro ADME", "conditions": "probe phenacetin, phenacetin substrate", "method": "(§1) Human liver microsomes were incubated with the test compounds at 0.2 mg/mL of microsomal protein. The incubation was conducted at 37 °C in the presence of a NADPH (β-Nicotinamide adenine dinucleotide phosphate reduced form) regenerating system at a concentration of approximately 10 mM. To assess CYP inhibition, positive control substrates were utilized, including Phenacetin (1A2 substrate), Diclofenac (2C9 substrate), S-mephenytoin (2C19 substrate), Dextromethorphan (2D6 substrate), and Midazolam (3A4 substrate). The mixture was centrifuged after a 10 min incubation period to precipitate the protein. Subsequently, the samples underwent LC-MS/MS analysis, and the IC50 values were calculated to ascertain the inhibitory potency of the test compounds on specific CYP enzymes."}, "CYP2D6": {"molecular_target": "T2, CYP2D6 (Homo sapiens, UniProt P10635)", "T2 construct": "from tissue; host or cells: human liver microsomes", "T2 sequence (P10635 whole entry)": "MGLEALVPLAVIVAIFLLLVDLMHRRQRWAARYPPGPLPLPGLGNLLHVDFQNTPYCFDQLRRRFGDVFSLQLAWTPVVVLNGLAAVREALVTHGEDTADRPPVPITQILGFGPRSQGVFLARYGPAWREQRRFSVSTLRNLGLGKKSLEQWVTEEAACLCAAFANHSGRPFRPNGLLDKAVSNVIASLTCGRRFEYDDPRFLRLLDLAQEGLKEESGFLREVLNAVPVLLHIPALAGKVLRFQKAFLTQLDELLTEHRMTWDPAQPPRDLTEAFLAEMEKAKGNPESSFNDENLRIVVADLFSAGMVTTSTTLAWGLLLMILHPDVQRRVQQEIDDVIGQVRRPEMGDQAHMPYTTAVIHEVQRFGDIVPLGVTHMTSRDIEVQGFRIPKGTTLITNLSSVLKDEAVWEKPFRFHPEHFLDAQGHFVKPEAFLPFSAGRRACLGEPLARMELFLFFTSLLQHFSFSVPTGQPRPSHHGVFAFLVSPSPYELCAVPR", "test": "CYP inhibition in human liver microsomes", "type": "in vitro ADME", "conditions": "probe dextromethorphan, dextromethorphan substrate", "method": "as §1"}, "[1]": {"test": "Protein binding in mouse brain, equilibrium dialysis", "conditions": "mouse", "method": "(§2) Protein binding of test compound in mouse brain using equilibrium dialysis […]\n(§3) method. Solution A (0. 5 mM) was prepared by mixing 10 µL of a 10 mM stock solution […]\n(§4) with 190 µL of DMSO. Subsequently, Solution B (0.02 mM) was prepared by adding […]\n(§5) 8 µL of solution A to 192 µL of 0.05 M sodium phosphate buffer. The final concentration of DMSO in Solution B was 4%.\n(§6) A 96-well plate was initially prepared by dispensing 380 µL aliquots of brain […]\n(§7) tissue into wells designated for the brain while t h e buffer was added to the remaining […]\n(§8) wells to serve as a control. Subsequently, 20 µL of Solution B (containing 0.02 mM of […]\n(§9) test and reference compounds) was spiked into the pre-loaded brain samples in the […]\n(§10) plate. This step yielded a final test concentration of 1 µM, containing 0.2% DMSO. A duplicate system was establi shed for the dialysis sampl es wherein brain tissu e was prepared against buffer. Initially, 100 µL aliquots of blank dialysis buffer were applied to the receiver side of the dialysis chambers. Subsequently, 100 µL aliquots of the brain […]\n(§11) tissue spiked with te st and reference compounds were applied to the donor side of the […]\n(§12) T0 brain samples for initial concentrations were prepared in duplicate. A 25µL […]\n(§13) aliquot of the brain spiked with test and reference compounds was transferred into a 96- […]\n(§14) well sample preparation plate. An equivalent volume of blank buffer was then added […]\n(§15) to each well. Af ter the 5-hour incubation period, aliquots of 25 µL wer e taken f r om t h e […]\n(§16) dialysis apparatus's donor and receiver sides and transferred into new sample […]\n(§17) preparation plates. An equal volume of the opposite matrix (blank buffer to brain and […]\n(§18) vice versa) was added to each well, resulting in a final volume of 50 µL in each well.\n(§19) The samples (both T0 and f i v e h) were then quenched with 200 µL of acetonitrile […]\n(§20) containing internal standard (IS) and vortexed at 600 rpm for 10 minutes. After […]\n(§21) vortexing, the samples were centrifuged at 5594 × g for 15 minutes. Subsequently, 50 […]\n(§22) µL of the supernatants were transferred to a new 96-well plate and mixed with 50 µL […]\n(§23) of Milli- Q water. T he sample plates wer e cover ed and stor ed in a f r eezer ( -20 ℃) until […]\n(§24) respectively. For data analysis, the following equations wer e used:\n(§25) % Bound = 100 × ([Donor]5h -[ Receiver] 5h) / [Donor] 5h\n(§26) % Recovery= 100 × ([Donor]5h +[Receiver] 5h) / [Initial] 0h\n(§27) Undiluted Fu (%) = (1/D) / [(1/Fu2-1 ) + 1/ D ]\n(§28) Whereas; D: Dilution factor = Dilution factor of brain: 4"}, "mouse brain tissue": {"system": "mouse brain tissue", "test": "Protein binding in mouse brain, equilibrium dialysis", "method": "as §2, §3, §4, §5, §6, §7, §8, §9, §10, §11, §12, §13, §14, §15, §16, §17, §18, §19, §20, §21, §22, §23, §24, §25, §26, §27, §28"}}}
{"compound": "O=S(=O)(NC1CCCOc2c1nn(-c1ccccc1Cl)c2-c1ccc(Cl)cc1)c1ccc(Cl)cc1", "note": "(stereo not drawn) [BNS808, 4-chloro-N-[2-(2-chlorophenyl)-3-(4-chlorophenyl)-5,6,7,8-tetrahydrooxepino[3,2-c]pyrazol-8-yl]benzenesulfonamide]", "values": [{"measurement": "IC50 at 10 min", "setting": "CYP1A2", "value": "> 50", "unit": "µM"}, {"measurement": "IC50 at 10 min", "setting": "CYP2D6", "value": "> 50", "unit": "µM"}, {"measurement": "recovery at 5 h, 1 µM", "setting": "[1]", "value": 81.8, "unit": "%"}, {"measurement": "protein binding in mouse brain (category)", "setting": "mouse brain tissue; equilibrium dialysis, 1 µM, 5 h", "value": "extremely high protein binding and high"}, {"measurement": "Fraction of bound (%)", "setting": "mouse brain tissue; mouse brain, diluted homogenate, 5 h", "value": 100, "unit": "%"}, {"measurement": "Undiluted Bound (%)", "setting": "mouse brain tissue; mouse brain, dilution factor 4", "value": 100.0, "unit": "%"}]}
